The text below walks through data of the supplement of paper PMC12613149.

Data set [1] is described as follows: collision cross section (TIMS, N2 drift gas) of the primary ion; higher = larger gas-phase ion size.
The nature of data set [2]: reversed-phase LC retention time (C18, 15 min MeOH gradient); higher = more hydrophobic / later elution.
The mark [3] stands for this setting: ionization mode: ESI+, ion species: [M+H]+.
The mark [4] stands for this setting: ionization mode: ESI-, ion species: [M-H]-.
The mark [5] stands for this setting: ionization mode: ESI+, ion species: [M]+.

Regarding `C[C@@H](O)CCCCn1c(=O)c2c(ncn2C)n(C)c1=O` [Lisofylline], the collision cross section in data set [1] (setting [3]) is 162.42 Å². Besides, in data set [2] (setting [3]), the “reversed-phase LC retention time” value turned out to be 10.3 min.
For `CN(C)C(=O)C(CCN1CCC(O)(c2ccc(Cl)cc2)CC1)(c1ccccc1)c1ccccc1` [Loperamide] the same measures were 221.69 Å² and 13.6 min.
Consider `O=C1Nc2ccc(Cl)cc2C(c2ccccc2Cl)=NC1O` (stereo not given) [Lorazepam], for which the results for the collision cross section in data set [1] (setting [3]) and in data set [1] (setting [4]) were 168.84 Å² and 167.96 Å², respectively. Also, the “reversed-phase LC retention time” value was 13.2 min in data set [2] (setting [3]) and 13.5 min in data set [2] (setting [4]).
For `CCCCc1nc(Cl)c(CO)n1Cc1ccc(-c2ccccc2-c2nn[nH]n2)cc1` [Losartan] the same measures were 201.04 Å², 204 Å², 13.3 min and 13 min.
In the case of `O=C1CCCC2C3CC(CN12)C1CCCCN1C3` (stereo not given) [Lupanine], in data set [1] (setting [3]), the collision cross section is listed as 154.3 Å². Besides, the “reversed-phase LC retention time” value in data set [2] (setting [3]) was found to be 5.52 min.
As to `C#CCOc1ccc(CCNC(=O)C(OCC#C)c2ccc(Cl)cc2)cc1OC` (stereo not given) [Mandipropamid], the collision cross section is reported as 194.91 Å² in data set [1] (setting [3]) and 195.62 Å² in data set [1] (setting [4]). Further, the “reversed-phase LC retention time” value in data set [2] (setting [3]) was found to be 14.2 min; in data set [2] (setting [4]), 14.6 min.
`COc1cc(C[C@H]2COC(=O)[C@@H]2Cc2ccc(O)c(OC)c2)ccc1O` [Matairesinol]: the collision cross section is given as 191.29 Å² in data set [1] (setting [3]) and 176.96 Å² in data set [1] (setting [4]). Moreover, the results for the “reversed-phase LC retention time” value in data set [2] (setting [3]) and in data set [2] (setting [4]) were 11.4 min and 11.6 min, respectively.
For `COC(=O)Nc1nc2ccc(C(=O)c3ccccc3)cc2[nH]1` [Mebendazole] the same measures were 175.29 Å², 173.87 Å², 12.4 min and 13 min.
Molecule `CCN(CCCCOC(=O)c1ccc(OC)c(OC)c1)C(C)Cc1ccc(OC)cc1` (stereo not given) [Mebeverine] showed a collision cross section in data set [1] (setting [3]) of 202.99 Å². Also, in data set [2] (setting [3]), the “reversed-phase LC retention time” value turned out to be 11.9 min.
With `CC(=O)[C@@]1(O)CC[C@H]2[C@@H]3C[C@H](C)C4=CC(=O)CC[C@]4(C)[C@H]3CC[C@@]21C` [Medroxyprogesterone], the collision cross section came to 187.34 Å² in data set [1] (setting [3]) and 188.11 Å² in data set [1] (setting [4]). For the same molecule, the “reversed-phase LC retention time” value in data set [2] (setting [3]) was 15.1 min; in data set [2] (setting [4]) it was 15.6 min.
In data set [1] (setting [3]), `CC(=O)O[C@]1(C(C)=O)CC[C@H]2[C@@H]3C[C@H](C)C4=CC(=O)CC[C@]4(C)[C@H]3CC[C@@]21C` [Medroxyprogesteroneacetate] displayed a collision cross section of 199.59 Å². In addition, the “reversed-phase LC retention time” value in data set [2] (setting [3]) worked out at 15.4 min.
For `Cc1cccc(Nc2ccccc2C(=O)O)c1C` [Mefenamic acid], the figures for the collision cross section in data set [1] (setting [3]) and in data set [1] (setting [4]) were 154.45 Å² and 159.71 Å², respectively. Besides, the “reversed-phase LC retention time” value was 16.3 min in data set [2] (setting [3]) and 13.6 min in data set [2] (setting [4]).
On to `CC(=O)O[C@]1(C(C)=O)CC[C@H]2[C@@H]3C=C(C)C4=CC(=O)CC[C@]4(C)[C@H]3CC[C@@]21C` [Megestrol-17-acetate], for which the collision cross section in data set [1] (setting [3]) is recorded as 198.3 Å². Also, the “reversed-phase LC retention time” value in data set [2] (setting [3]) amounted to 15.2 min.
Take `COc1ccc2[nH]cc(CCNC(C)=O)c2c1` [Melatonin]: the collision cross section in data set [1] (setting [3]) was 153.65 Å²; in data set [1] (setting [4]), 154.96 Å². Further, the “reversed-phase LC retention time” value in data set [2] (setting [3]) stood at 9.66 min; in data set [2] (setting [4]), 9.81 min.
With `CC1CCN(CCCC(=O)c2ccc(F)cc2)CC1` [Melperon], the collision cross section in data set [1] (setting [3]) was determined as 163.5 Å². Moreover, the “reversed-phase LC retention time” value in data set [2] (setting [3]) came out at 9.83 min.
Take `CC12CC3CC(C)(C1)CC(N)(C3)C2` [Memantine]: the collision cross section in data set [1] (setting [3]) amounted to 144.78 Å². In data set [2] (setting [3]), the “reversed-phase LC retention time” value came out at 11.7 min.
As to `CC#Cc1cc(C)nc(Nc2ccccc2)n1` [Mepanipyrim], in data set [1] (setting [3]), the collision cross section came to 152.51 Å². Moreover, the “reversed-phase LC retention time” value in data set [2] (setting [3]) is 14.6 min.
In data set [1] (setting [5]), `C[N+]1(C)CCCCC1` [Mepiquat] came in with a collision cross section of 118.75 Å². For the same molecule, the “reversed-phase LC retention time” value in data set [2] (setting [5]) came out at 1.01 min.
With `COC(=O)c1ccc(CNS(C)(=O)=O)cc1S(=O)(=O)NC(=O)Nc1nc(OC)cc(OC)n1` [Mesosulfuron-methyl], the collision cross section was 201.99 Å² in data set [1] (setting [3]) and 206.67 Å² in data set [1] (setting [4]). Also, the “reversed-phase LC retention time” value in data set [2] (setting [3]) is 12.7 min; in data set [2] (setting [4]) it was 9.27 min.
For `N#Cc1ccc(C/C(=N\NC(=O)Nc2ccc(OC(F)(F)F)cc2)c2cccc(C(F)(F)F)c2)cc1` [Metaflumizone] the same measures were 213.54 Å², 221.65 Å², 16.8 min and 17.3 min.
The molecule `COCC(=O)N(c1c(C)cccc1C)C(C)C(=O)OC` (stereo not given) [Metalaxyl] came in with a collision cross section in data set [1] (setting [3]) of 160.45 Å². Also, the “reversed-phase LC retention time” value in data set [2] (setting [3]) stood at 12.7 min.
`Cc1nc(=O)c(-c2ccccc2)n[nH]1` [Metamitron-desamino]: the figures for the collision cross section in data set [1] (setting [3]) and in data set [1] (setting [4]) were 139.91 Å² and 137.07 Å², respectively. The “reversed-phase LC retention time” value in data set [2] (setting [3]) is 8.87 min; in data set [2] (setting [4]) it was 6.92 min.
Molecule `Cc1nnc(-c2ccccc2)c(=O)n1N` [Metamitron] gave a collision cross section in data set [1] (setting [3]) of 143.85 Å². For the same molecule, in data set [2] (setting [3]), the “reversed-phase LC retention time” value was determined as 8.87 min.
With `Cc1cccc(C(=O)O)c1N(Cn1cccn1)C(=O)C(=O)O` [Metazachlor BH479-12], the collision cross section in data set [1] (setting [3]) was found to be 160.33 Å². The “reversed-phase LC retention time” value in data set [2] (setting [3]) was 8.13 min.
Regarding `Cc1cccc(C)c1N(Cn1cccn1)C(=O)CS(=O)CC(=O)O` (stereo not given) [Metazachlor BH 479-9], the values for the collision cross section in data set [1] (setting [3]) and in data set [1] (setting [4]) were 175.08 Å² and 178.82 Å², respectively. Further, the results for the “reversed-phase LC retention time” value in data set [2] (setting [3]) and in data set [2] (setting [4]) were 9.7 min and 8.94 min, respectively.
In data set [1] (setting [3]), `Cc1cccc(C)c1N(Cn1cccn1)C(=O)CS(C)=O` (stereo not given) [Metazachlor BH 479-11] registered a collision cross section of 163.01 Å². Moreover, in data set [2] (setting [3]), the “reversed-phase LC retention time” value turned out to be 10.3 min.
In the case of `Cc1cccc(C)c1N(Cn1cccn1)C(=O)CS(=O)(=O)O` [Metazachlor ESA], the collision cross section in data set [1] (setting [3]) stood at 168.61 Å²; in data set [1] (setting [4]), 168.78 Å². In addition, the “reversed-phase LC retention time” value in data set [2] (setting [3]) turned out to be 9.52 min; in data set [2] (setting [4]) it was 9.35 min.
